The numbers were not newly measured in patent US12616197B2, “Three-dimensional printing” (PERIDOT PRINT LLC, priority 2021, dated 2026), which cites them from elsewhere.

Converted amounts (≈) assume the structure as drawn. Where two headings read alike, the source gives them in different places.

Regarding `Cc1ncc(CO)c(CO)c1O.Cl` [pyridoxine hydrochloride], the solubility in water is recorded as 200 mg/mL.

For cyanocobalamin, for the setting “water”, the solubility in water was 1000 mg/80 mL. `Cc1ncc(CO)c(CN)c1O` [pyridoxamine]: the solubility in water (water) is reported as 29 mg/mL (≈ 172 mM).

Regarding `Cc1cc2nc3c(=O)[nH]c(=O)nc-3n(C[C@H](O)[C@H](O)[C@H](O)CO)c2cc1C` [riboflavin], the solubility in water (water, depending on the crystal structure) was 1000 mg/3,000-15,000 mL.
